1 molecule from PMC7864197, “High-Content Analysis-Based Sensitivity Prediction and Novel Therapeutics Screening for c-Met-Addicted Glioblastoma” (Cancers, 2021) can be followed below.

The experiment concerns the target c-Met (MET kinase) (Homo sapiens, UniProt P08581). In words: ADP-Glo MET kinase enzyme system (in vitro kinase assay). The experiment is classed as biochemical. On the technique in general: ADP-Glo first removes unused ATP, then detects ADP through luciferase.

Chain of c-Met (MET kinase) (P08581 25-307): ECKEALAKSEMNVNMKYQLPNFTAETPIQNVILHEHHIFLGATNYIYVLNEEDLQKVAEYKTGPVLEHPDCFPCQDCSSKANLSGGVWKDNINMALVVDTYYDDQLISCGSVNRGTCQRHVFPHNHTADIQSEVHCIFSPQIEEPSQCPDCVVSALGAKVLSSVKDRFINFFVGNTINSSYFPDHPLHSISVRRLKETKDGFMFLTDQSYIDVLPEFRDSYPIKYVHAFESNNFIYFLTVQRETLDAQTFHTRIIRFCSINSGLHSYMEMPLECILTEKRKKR
Chain of c-Met (MET kinase) (P08581 308-1390): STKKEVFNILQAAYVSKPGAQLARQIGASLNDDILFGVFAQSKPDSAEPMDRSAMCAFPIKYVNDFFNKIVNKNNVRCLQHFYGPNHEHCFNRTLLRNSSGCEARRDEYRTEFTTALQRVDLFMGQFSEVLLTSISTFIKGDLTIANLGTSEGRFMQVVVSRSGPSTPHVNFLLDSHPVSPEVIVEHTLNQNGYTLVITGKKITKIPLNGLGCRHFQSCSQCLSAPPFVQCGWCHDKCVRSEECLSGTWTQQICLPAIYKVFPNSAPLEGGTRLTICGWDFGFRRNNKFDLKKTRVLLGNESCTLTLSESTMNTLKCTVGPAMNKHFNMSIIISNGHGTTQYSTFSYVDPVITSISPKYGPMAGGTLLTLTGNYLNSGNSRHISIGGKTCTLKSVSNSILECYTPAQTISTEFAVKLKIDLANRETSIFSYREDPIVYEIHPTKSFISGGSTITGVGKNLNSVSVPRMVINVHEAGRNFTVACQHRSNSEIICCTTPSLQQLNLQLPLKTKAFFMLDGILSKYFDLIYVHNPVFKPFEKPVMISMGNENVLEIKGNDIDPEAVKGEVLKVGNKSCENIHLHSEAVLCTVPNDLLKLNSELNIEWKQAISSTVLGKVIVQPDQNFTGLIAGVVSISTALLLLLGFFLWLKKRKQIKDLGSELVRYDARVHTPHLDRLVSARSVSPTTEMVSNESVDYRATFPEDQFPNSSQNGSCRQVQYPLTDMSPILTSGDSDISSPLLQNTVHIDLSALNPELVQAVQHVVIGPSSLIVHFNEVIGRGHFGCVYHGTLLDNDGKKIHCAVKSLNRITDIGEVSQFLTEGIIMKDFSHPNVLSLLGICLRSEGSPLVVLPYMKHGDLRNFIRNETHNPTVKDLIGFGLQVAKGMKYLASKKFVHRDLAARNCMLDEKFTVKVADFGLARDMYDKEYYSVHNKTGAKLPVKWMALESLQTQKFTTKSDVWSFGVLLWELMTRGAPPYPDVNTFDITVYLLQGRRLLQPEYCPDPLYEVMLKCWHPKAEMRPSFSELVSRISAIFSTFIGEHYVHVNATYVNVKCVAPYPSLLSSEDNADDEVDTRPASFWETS

`CCN1CCN(Cc2ccc(Nc3ncc(F)c(-c4cc(F)c5nc(C)n(C(C)C)c5c4)n3)nc2)CC1` [Abemaciclib]: the “ADP-Glo MET kinase enzyme system (in vitro kinase assay)” value is given as “abemaciclib was shown to inhibit kinase activity of c-Met at high concentrations”.
